Data from patent US20240382564A1, “Methods and Compositions for Treating Muscular Dystrophy and Memory Impairment” (Allysta Pharmaceuticals, Inc., priority 2023, published 2024).
Where no end group is shown, it is not given here. [ ]: non-standard residue; d: D form. Nva = CCC[C@H](N)C(=O)O

What was measured:
Type in all cases: in vivo, mouse
D2.mdx mice [1] = experiment: In-situ quadriceps force
Experimental: (§1) D2.mdx mice were treated with ALY688 at two different dosages; high dose (HD; 15 mg/kg body weight/day) or low dose (LD; 3 mg/kg body weight/day) dissolved in saline. A separate group of mice were treated with saline alone (VEH, vehicle). Treatment was provided via subscapular subcutaneous injections from 7 days of age to 28-30 days. […] At 28-30 days of age, mice were anaesthetized with isoflurane vaporized in medical air (21% oxygen) at a 2 L/min flow rate. Due to tissue limitations in limb muscle, certain measures were performed separately in tibialis anterior and quadriceps across several phases of breeding. […]
Body temperature was maintained using an overhead heat lamp. […] Optimal resting length (L0) was determined using single twitches (pulse width=0.2 ms) at varying muscle lengths at the maximal stimulation current. Force was assessed across increasing frequencies (1, 40, 60, 80, 100, 120 Hz) using a biphasic stimulator (Model 710B, Aurora Scientific, Inc., ON, Canada), with one minute rest between each frequency. […] Recovery from fatigue was assessed 5, 10 and 15 minutes after the last contraction of the fatigue protocol at the frequency that elicited max force. Data were analyzed using Dynamic Muscle Control Data Acquisition software (Aurora Scientific, Inc) and normalized to quadriceps weight in mg.

D2.mdx mice [2] = experiment: Fibre-type specific minimal Feret's diameter (muscle atrophy), myosin heavy chain immunofluorescence
Experimental: (§2) D2.mdx mice were treated with ALY688 at two different dosages; high dose (HD; 15 mg/kg body weight/day) or low dose (LD; 3 mg/kg body weight/day) dissolved in saline. A separate group of mice were treated with saline alone (VEH, vehicle). Treatment was provided via subscapular subcutaneous injections from 7 days of age to 28-30 days. […] At 28-30 days of age, mice were anaesthetized with isoflurane vaporized in medical air (21% oxygen) at a 2 L/min flow rate. Due to tissue limitations in limb muscle, certain measures were performed separately in tibialis anterior and quadriceps across several phases of breeding. Following the treatment protocol, in situ quadriceps force assessments were then performed in one limb followed by removal of the quadriceps from the other limb for mitochondrial assessments, diaphragm for in vitro force assessments and finally other tissues for further processing as described below. Muscle and visceral organs weights were normalized to tibia length. Tissue collected from the first phase were utilized in force, histological, mitochondrial measures (respiration, mH2O2 and calcium retention capacity) and western analyses (diaphragm and quadriceps only). A second phase was then collected and utilized for cytokine profiling, qPCR analyses and additional westerns (TA only). Serum was collected from both phase 1 and 2 and utilized for serum CK analysis. All animals were utilized in in vivo functional assays (grip strength, cage hang time and voluntary wheel running).
Samples collected were cut into 8 µm thick serial cross sections with a cryostat (Thermo Fisher Scientific; Kalamazoo, MI, United States;) maintained at −20° C. on Fisherbrand Superfrost Plus slides (Thermo Fisher Scientific). Hematoxylin and eosin (H&E) and Masson's trichrome staining was used to assess muscle health and fibrosis. Centralized nuclei, a marker of regenerating fibres, was analyzed by selecting five evenly spaced images throughout the muscle and averaging the result. Areas of damage (fibres with fragmented sarcoplasm and immune cell infiltration) were expressed as a percentage of the entire muscle section. Images were taken using EVOS M7000 imager (Thermo Fisher Scientific) using 20× magnification and analyzed using ImageJ (http://imagej.nih.gov/ij/). To determine fibrotic area, skeletal muscle sections were stained with Masson's Trichrome (fibrotic regions stain blue for collagen) and expressed as a percentage of a region of interest, which included the entire muscle section with any artifacts removed. Sections were imaged Nikon 90i-eclipse microscope (Nikon Inc., Melville, NY) and analysed with the NIS Elements AR software (v4.6, Nikon). […] These images were then analyzed with ImageJ for minimal Feret's diameter as an index of muscle atrophy.

D2.mdx mice [3] = experiment: Fibrosis by Masson's trichrome staining of muscle sections after ALY688 treatment
Experimental: as §1
Samples collected were cut into 8 µm thick serial cross sections with a cryostat (Thermo Fisher Scientific; Kalamazoo, MI, United States;) maintained at −20° C. on Fisherbrand Superfrost Plus slides (Thermo Fisher Scientific). […] Centralized nuclei, a marker of regenerating fibres, was analyzed by selecting five evenly spaced images throughout the muscle and averaging the result. Areas of damage (fibres with fragmented sarcoplasm and immune cell infiltration) were expressed as a percentage of the entire muscle section. Images were taken using EVOS M7000 imager (Thermo Fisher Scientific) using 20× magnification and analyzed using ImageJ (http://imagej.nih.gov/ij/). […] These images were then analyzed with ImageJ for minimal Feret's diameter as an index of muscle atrophy.

D2.mdx mice [4] = experiment: Muscle cytokine mRNA by quantitative PCR
Experimental: as §2
Samples were lysed using TRIzol reagent and RNA was separated to aqueous phase using chloroform. The aqueous layer containing RNA was then mixed with isopropanol and loaded to Aurum Total RNA Mini Kit columns (Bio-Rad, Mississauga, ON, Canada). Total RNA was then extracted according to the manufacturer's instructions and concentration was assessed on the nanodrop attachment for the Varioskan LUX Multimode Microplate reader (Thermo Scientific). Reverse transcription of RNA into cDNA was performed by M-MLV reverse transcriptase and oligo (dT) primers (Qiagen). cDNA was then amplified in a CFX384 Touch Real-Time PCR Detection Systems (Bio-Rad) with a SYBR Green master mix and specific primers. Standard curves were created by plotting log DNA concentrations against Ct values from a 1:5 serial dilutions with CFX Manager Software. Gene expression was normalized to a Rplp0 control, and relative differences were determined using the ΔΔCt method Values are presented as fold increases relative to WT group.

Substance: [dN]IP[Nva]LY[dS]FA[dS]-NH2 [ALY688]
- muscle force production (D2.mdx mice [1]; both doses): no effect
- recovery from fatigue, change (D2.mdx mice [1]; low dose, printed range also covers diaphragm high dose): −5.3% to −50.9
- atrophy in MHC I fibers (minimal feret diameter) (D2.mdx mice [2]; diaphragm, HD 15 mg/kg/day): completely prevented atrophy
- minimal feret diameter, IIA fibers (D2.mdx mice [2]; diaphragm, HD, WT 24, VEH 20): 22 μm
- minimal feret diameter, IIB fibers (D2.mdx mice [2]; diaphragm, HD, WT 26, VEH 23): 24 μm
- minimal feret diameter in any fiber type (D2.mdx mice [2]; tibialis anterior, between the groups): no differences
- attenuation of diaphragm fibrosis (collagen content) (D2.mdx mice [3]; diaphragm, both doses (LD 3, HD 15 mg/kg/day s.c., 7 to 28-30 days of age)): 66.7-67.6%
- partial prevention of fibrosis and atrophy in tibialis anterior (D2.mdx mice [3]; tibialis anterior): not observed
- IL-10 mRNA content (D2.mdx mice [4]; diaphragm, HD): not different between groups
- TGF-β mRNA contents (D2.mdx mice [4]; diaphragm, HD): unchanged in all groups
- TNF-α mRNA content (D2.mdx mice [4]; diaphragm, HD): not different between groups
- IL-1β mRNA (D2.mdx mice [4]; diaphragm, HD vs VEH): not affected by the drug
- IL-6 mRNA content (D2.mdx mice [4]; diaphragm, HD, increase in VEH attenuated): 51.8 % increase vs WT
- attenuation of TNF-α mRNA compared to VEH (D2.mdx mice [4]; tibialis anterior, HD): 41.4%
